Test results taken from ChEMBL document CHEMBL1153788, “Bioactive diterpene derivatives from the marine sponge Spongionella sp” (J Nat Prod, 2009).

What was measured:
PBMC = test: Cytotoxicity against human PBMC cells assessed as decrease in luminescence after 24 hrs by luminescent cell viability assay; type: cell-based
K562 = test: Cytotoxicity against human K562 cells assessed as decrease in luminescence after 24 hrs by luminescent cell viability assay; type: functional, cell-based; conditions: K562, 24 h

| SMILES | IC50 (PBMC) | IC50 (K562) |
| --- | --- | --- |
| CC(=O)O[C@@H]1O[C@H]2OC(=O)[C@H](C)C3=C([C@@]4(C)CCCC(C)(C)C4)CC[C@@H]1[C@H]32 | 4.5 µM | 2.3 µM |
| CC(=O)O[C@H]1O[C@H]2O[C@H]3OC(=O)/C(=C\CC4(OC(C)=O)CCCC(C)(C)C4)[C@H]3[C@H]2[C@@H]1OC(C)=O (stereo partly specified) [GRACILIN J] | 30 µM | 15 µM |
| CC(=O)O[C@H]1O[C@H]2O[C@H]3OC(=O)/C(=C\C4CCCC(C)(C)C4)[C@H]3[C@H]2[C@@H]1OC(C)=O (stereo partly specified) [GRACILIN K] | 9 µM | 8.5 µM |
